Experimental data published in patent US4016159A, “Acylamino-cephem-carboxylic acids containing an amidino or guanidino group in the molecule” (Hoechst Aktiengesellschaft, priority 1973, dated 1977).
Values after ≈ are worked out from the molar mass of the structure shown. Where two headings read alike, the source gives them in different places.

What was measured:
Type in all cases: cell-based
Streptococcus pyogenes A = experiment: Minimum inhibition concentration (MIC), Table 3; conditions: for MIC: read-out: Minimum inhibition concentration MIC
Source text: Minimum inhibition concentration MIC in γ/ml
Germ: Streptococcus pyogenes A

Proteus mirabilis = experiment: Minimum inhibition concentration (MIC), Table 2; parameters: Minimum inhibition concentration (MIC): unit not given here; conditions: for MIC: read-out: Minimum inhibition concentration (MIC)
Source text: Minimum inhibition concentration (MIC) in /ml

[1] = test system: Staphylococcus aureus SG 511; experiment: Minimum inhibition concentration (MIC), Table 5; conditions: Staphylococcus aureus
Source text: (§1) Minimum inhibition concentration (MIC) in γ/ml
Germ: Staphylococcus aureus SG 511

[2] = test system: Staphylococcus aureus 285; experiment: Minimum inhibition concentration (MIC), Table 1; conditions: for MIC: Staphylococcus aureus, 285, Germ: Staphylococcus aureus 285, read-out: Minimum inhibition concentration (MIC)
Source text: as §1
Germ: Staphylococcus aureus 285

Streptococcus D = experiment: Minimum inhibition concentration (MIC), Table 4; conditions: for MIC: Streptococcus, read-out: Minimum inhibition concentration (MIC)
Source text: as §1

[3] = SG511, Germ: Staphylococcus aureus SG 511, read-out: Minimum inhibition concentration (MIC)
[4] = SG511, read-out: Minimum inhibition concentration (MIC)

`Cc1nnc(SCC2=C(C(=O)O)N3C(=O)[C@@H](NC(=O)Cn4cnnn4)[C@H]3SC2)s1` [Cephazolin-Na, reference compound] was tested, and the MIC (Streptococcus pyogenes A; Germ: Streptococcus pyogenes A) was 0.03 µg/mL (≈ 0.066 µM), the MIC (Proteus mirabilis; Germ: Proteus mirabilis) was 25 µg/mL (≈ 55 µM) and the MIC [1, 3] was 0.25 µg/mL (≈ 0.55 µM).

`O=C(Cc1ccc(C2=NCCN2)cc1)NC1C(=O)N2C(C(=O)O)=C(CSc3nncs3)CSC12` (centres unmarked) [Example 70, 3-[(1,3,4-thiadiazole-2-yl)-thiomethyl]-7-[4-(imidazoline-2-yl)phenylacetamido]-Δ 3-cephem-4-carboxylic acid] gave an MIC (Streptococcus pyogenes A; Germ: Streptococcus pyogenes A) of 0.000391 to 0.0078 µg/mL (≈ 0.000757 to 0.0151 µM), an MIC (Proteus mirabilis; Germ: Proteus mirabilis) of 3.1 to 12.5 µg/mL (≈ 6 to 24.2 µM) and an MIC [2] of 0.156 to 0.391 µg/mL (≈ 0.302 to 0.757 µM). It also gave an MIC [1, 3] of 0.0625 to 0.078 µg/mL (≈ 0.121 to 0.151 µM) and an MIC (Streptococcus D; Germ: Streptococcus D) of 0.196 to 6.25 µg/mL (≈ 0.379 to 12.1 µM).

For `N=C(N)c1ccc(CC(=O)NC2C(=O)N3C(C(=O)O)=C(CSc4nc[nH]n4)CSC23)cc1` (centres unmarked) [Example 24, 3-[(1,2,4-triazole-3-yl)-thiomethyl]-7-(4-amidino-phenylacetamido)-Δ3-cephem-4-carboxylic acid], the MIC (Proteus mirabilis; Germ: Proteus mirabilis) was 25 µg/mL (≈ 52.8 µM) and the MIC [2] was 0.5 to 1.25 µg/mL (≈ 1.06 to 2.64 µM).

In the case of `N=C(N)Nc1ccc(CC(=O)NC2C(=O)N3C(C(=O)O)=C(CSc4nncs4)CSC23)cc1` (centres unmarked) [Example 9, 3-[(1,3,4-thiadiazole-2-yl)-thiomethyl]-7-(4-guanidino-phenylacetamido)-Δ3-cephem-4-carboxylic acid], the MIC (Streptococcus pyogenes A; Germ: Streptococcus pyogenes A) is reported as 0.000391 to 0.0078 µg/mL (≈ 0.000773 to 0.0154 µM), the MIC (Proteus mirabilis; Germ: Proteus mirabilis) is reported as 25 µg/mL (≈ 49.4 µM) and the MIC [2] is reported as 0.5 to 1.25 µg/mL (≈ 0.989 to 2.47 µM). It also gave an MIC [1, 3] of 0.0196 to 0.0391 µg/mL (≈ 0.0388 to 0.0773 µM) and an MIC (Streptococcus D; Germ: Streptococcus D) of 10 to 50 µg/mL (≈ 19.8 to 98.9 µM).

For `O=C(Cc1ccc(C2=NCCN2)cc1)NC1C(=O)N2C(C(=O)O)=C(CSc3nnco3)CSC12` (centres unmarked) [Example 124, 3-[(1,3,4-oxadiazole-2-yl)-thiomethyl]-7-[4-(imidazoline-2-yl)-phenylacetamido]-Δ 3-cephem-4-carboxylic acid], the MIC (Streptococcus pyogenes A; Germ: Streptococcus pyogenes A) was 0.008 to 0.0156 µg/mL (≈ 0.016 to 0.0312 µM), the MIC (Proteus mirabilis; Germ: Proteus mirabilis) was 3.1 to 12.5 µg/mL (≈ 6.19 to 25 µM) and the MIC [2] was 0.5 to 1.25 µg/mL (≈ 0.999 to 2.5 µM). It also gave an MIC (Streptococcus D; Germ: Streptococcus D) of 10 to 50 µg/mL (≈ 20 to 99.9 µM).

`O=C(Cc1ccc(C2=NCCCN2)cc1)NC1C(=O)N2C(C(=O)O)=C(CSc3ccncc3)CSC12` (centres unmarked) [Example 97, 3-(4-pyridyl-thiomethyl)-7-[4-(1,4,5,6-tetrahydropyrimide-2-yl)-phenylacetamido]-Δ3-cephem-4-carboxylic acid] gave an MIC (Streptococcus pyogenes A; Germ: Streptococcus pyogenes A) of 0.000391 to 0.0078 µg/mL (≈ 0.000747 to 0.0149 µM), an MIC (Proteus mirabilis; Germ: Proteus mirabilis) of 25 µg/mL (≈ 47.7 µM) and an MIC [2] of 1.6 to 2.5 µg/mL (≈ 3.06 to 4.77 µM). The MIC (Streptococcus D; Germ: Streptococcus D) was 10 to 50 µg/mL (≈ 19.1 to 95.5 µM).

In the case of `Cc1n[nH]c(SCC2=C(C(=O)O)N3C(=O)C(NC(=O)Cc4ccc(C(=N)N)cc4)C3SC2)n1` (centres unmarked) [Example 23, 3-[(5-methyl-1,2,4-triazole-3-yl)-thiomethyl]-7-(4-amidino-phenylacetamido)-Δ 3-cephem-4-carboxylic acid], the MIC (Proteus mirabilis; Germ: Proteus mirabilis) is reported as 25 µg/mL (≈ 51.3 µM) and the MIC [2] is reported as 1.6 to 2.5 µg/mL (≈ 3.28 to 5.13 µM).

Work on `O=C(Cc1ccc(C2=NCCCN2)cc1)NC1C(=O)N2C(C(=O)O)=C(CSc3cccc[n+]3[O-])CSC12` (centres unmarked) [Example 107, 3-[(1-oxido-2-pyridyl)-thiomethyl]-7-[4-(1,4,5,6-tetrahydropyrimide-2-yl)-phenylacetamido]-Δ3-cephem-4-carboxylic acid] yielded an MIC (Proteus mirabilis; Germ: Proteus mirabilis) of 25 µg/mL (≈ 46.3 µM), an MIC [2] of 1.6 to 2.5 µg/mL (≈ 2.96 to 4.63 µM) and an MIC (Streptococcus D; Germ: Streptococcus D) of 10 to 50 µg/mL (≈ 18.5 to 92.7 µM).

In the case of `O=C(Cc1ccc(C2=NCCCN2)cc1)NC1C(=O)N2C(C(=O)O)=C(CSc3nnc[nH]3)CSC12` (centres unmarked) [Example 94, 3-[(triazole-2-yl)-thiomethyl]-7-[4-(1,4,5,6-tetrahydro-pyrimide-2-yl)-phenylacetamido]-Δ3-cephem-4-carboxylic acid], the “Minimum inhibition concentration (MIC)” value (Streptococcus pyogenes A; Germ: Streptococcus pyogenes A) is reported as 0.008 to 0.0156 µg/mL, the “Minimum inhibition concentration (MIC)” value (Proteus mirabilis; Germ: Proteus mirabilis) is reported as 25 and the “Minimum inhibition concentration (MIC)” value ([2]; Germ: Staphylococcus aureus 285) is reported as 1.6 to 2.5 µg/mL. For the same compound, the “Minimum inhibition concentration (MIC)” value (Streptococcus D; Germ: Streptococcus D) was 10 to 50 µg/mL.

`Cc1nnc(SCC2=C(C(=O)O)N3C(=O)C(NC(=O)Cc4ccc(C(=N)N)s4)C3SC2)s1` (centres unmarked) [Example 2, 3-[(5-methyl-1,3,4-thiadiazole-2-yl)-thiomethyl]-7-(5-amidinothienylacetamido)-Δ-3-cephem-4-carboxylic acid] gave an MIC (Streptococcus pyogenes A; Germ: Streptococcus pyogenes A) of 0.008 to 0.0156 µg/mL (≈ 0.0157 to 0.0305 µM), an MIC (Proteus mirabilis; Germ: Proteus mirabilis) of 25 µg/mL (≈ 49 µM) and an MIC [2] of 0.156 to 0.391 µg/mL (≈ 0.305 to 0.766 µM). The MIC (Streptococcus D; Germ: Streptococcus D) was 10 to 50 µg/mL (≈ 19.6 to 97.9 µM).

`CC1=C(C(=O)O)N2C(=O)[C@@H](NC(=O)[C@H](N)c3ccccc3)[C@H]2SC1` [Cephalexin, reference compound] was tested, and the MIC (Streptococcus pyogenes A; Streptococcus pyogenes) was 0.156 µg/mL (≈ 0.449 µM), the MIC (Proteus mirabilis; Proteus mirabilis) was 25 µg/mL (≈ 72 µM) and the MIC [1, 4] was 1.25 µg/mL (≈ 3.6 µM). For the same compound, the MIC (Streptococcus D) was 100 µg/mL (≈ 288 µM).

Compound `CC(=O)OCC1=C(C(=O)O)N2C(=O)[C@@H](NC(=O)Cc3cccs3)[C@H]2SC1` [Cephalotin-Na, reference compound] has an MIC (Streptococcus pyogenes A; Streptococcus pyogenes) of 0.05 µg/mL (≈ 0.126 µM), an MIC (Proteus mirabilis; Proteus mirabilis) of 12.5 µg/mL (≈ 31.5 µM) and an MIC [1, 4] of 0.13 µg/mL (≈ 0.328 µM). It also gave an MIC (Streptococcus D) of 78.5 µg/mL (≈ 198 µM).
